Counter-ions that a name gives are not always drawn.
Molecular target: T1, human β-Secretase (Homo sapiens, UniProt P56817)
T1 construct: soluble part of the human β-Secretase (AA 1-AA 460); Fc domain of IgG1; made in house
Assay: TR-FRET assay (β-secretase enzyme, sBACE-Fc)
Assay type: biochemical
Conditions: soluble human β-secretase (sBACE-Fc), substrate (Europium)[…](Qsy7) 100 nM, pH4.5; read-out: IC50 in TR-FRET assay
Description: The β-secretase enzyme used in the TR-FRET is prepared as follows:
The cDNA for the soluble part of the human β-Secretase (AA 1-AA 460) was cloned using the ASP2-Fc10-1-IRES-GFP-neoK mammalian expression vector. The gene was fused to the Fc domain of IgG1 (affinity tag) and stably cloned into HEK 293 cells.
The robotic systems Biomek FX and Velocity 11 were used for all liquid handling and the enzyme and substrate solutions were kept on ice until they were placed in the robotic system. Enzyme (9 μl) was added to the plate then 1 μl of compound in dimethylsulphoxide was added, mixed and pre-incubated for 10 minutes. Substrate (10 μl) was then added, mixed and the reaction proceeded for 15 minutes at room temperature. The reaction was stopped with the addition of Stop solution (7 μl, NaAcetate, pH 9). […] The dimethylsulphoxide control, instead of test compound, defined the 100% activity level and 0% activity was defined by wells lacking enzyme (replaced with reaction buffer).

T1 sequence (P56817 22-460): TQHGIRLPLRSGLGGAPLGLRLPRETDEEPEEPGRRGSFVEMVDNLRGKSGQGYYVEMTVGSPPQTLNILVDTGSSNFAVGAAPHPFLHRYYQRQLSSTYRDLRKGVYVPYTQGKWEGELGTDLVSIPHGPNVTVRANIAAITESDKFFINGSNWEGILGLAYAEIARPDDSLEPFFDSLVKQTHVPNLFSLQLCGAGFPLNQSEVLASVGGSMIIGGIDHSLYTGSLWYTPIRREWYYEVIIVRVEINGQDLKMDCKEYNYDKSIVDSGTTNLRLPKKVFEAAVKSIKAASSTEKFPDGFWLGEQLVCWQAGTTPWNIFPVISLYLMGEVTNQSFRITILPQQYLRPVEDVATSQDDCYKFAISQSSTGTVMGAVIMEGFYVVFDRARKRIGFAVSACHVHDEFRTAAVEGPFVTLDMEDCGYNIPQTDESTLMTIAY

Cc1cc(C2(c3cccc(-c4cncnc4)c3)N=C(N)c3c(F)cccc32)cc(C(F)F)n1 (centres unmarked) [Example 32, 1-(2-(Difluoromethyl)-6-methylpyridin-4-yl)-4-fluoro-1-(3-(pyrimidin-5-yl)phenyl)-1H-isoindol-3-amine]
IC50: 90 nM

Cc1cc(C2(c3ccnc(-c4cncnc4)c3)N=C(N)c3c(F)cccc32)cc(C(F)F)n1 (centres unmarked) [Example 33, 1-(2-(Difluoromethyl)-6-methylpyridin-4-yl)-4-fluoro-1-(2-(pyrimidin-5-yl)pyridin-4-yl)-1H-isoindol-3-amine]
IC50: 730 nM

COc1c(C)cc(C2(c3ccnc(-c4cncnc4)c3)N=C(N)c3c(F)cccc32)cc1F (centres unmarked) [Example 34, 4-Fluoro-1-(3-fluoro-4-methoxy-5-methylphenyl)-1-(2-(pyrimidin-5-yl)pyridin-4-yl)-1H-isoindol-3-amine]
IC50: 81 nM

COc1c(C)cc(C2(c3ccnc(-c4cncnc4)c3)N=C(N)c3c(F)cccc32)cc1C (centres unmarked) [Example 35, 4-Fluoro-1-(4-methoxy-3,5-dimethylphenyl)-1-(2-(pyrimidin-5-yl)pyridin-4-yl)-1H-isoindol-3-amine]
IC50: 35 nM

COc1c(C)cc(C2(c3ccnc(-c4cncnc4)c3)N=C(N)c3c(F)cccc32)nc1C (centres unmarked) [Example 36, 4-Fluoro-1-(5-methoxy-4,6-dimethylpyridin-2-yl)-1-(2-(pyrimidin-5-yl)pyridin-4-yl)-1H-isoindol-3-amine]
IC50: 490 nM

NC1=NC(c2cccc(-c3cnccn3)c2)(c2ccnc(C3CC3)c2)c2cccc(F)c21 (centres unmarked) [Example 37, 1-(2-Cyclopropylpyridin-4-yl)-4-fluoro-1-(3-(pyrazin-2-yl)phenyl)-1H-isoindol-3-amine trifluoroacetate]
IC50: 87 nM

COc1ccnc(-c2cccc(C3(c4ccnc(OC)c4)N=C(N)c4c(F)cccc43)c2)c1 (centres unmarked) [Example 38, 4-Fluoro-1-(3-(4-methoxypyridin-2-yl)phenyl)-1-(2-methoxypyridin-4-yl)-1H-isoindol-3-amine]
IC50: 430 nM

COc1cc(C2(c3cccc(-c4cc(C#N)ccn4)c3)N=C(N)c3c(F)cccc32)ccn1 (centres unmarked) [Example 39, 2-(3-(3-Amino-4-fluoro-1-(2-methoxypyridin-4-yl)-1H-isoindol-1-yl)phenyl)isonicotinonitrile]
IC50: 1100 nM

NC1=NC(c2ccnc(-c3cncnc3)c2)(c2ccnc(C(F)F)c2)c2cccc(F)c21 (centres unmarked) [Example 42, 1-(2-(Difluoromethyl)pyridin-4-yl)-4-fluoro-1-(2-(pyrimidin-5-yl)pyridin-4-yl)-1H-isoindol-3-amine]
IC50: 310 nM

COc1ccc(C2(c3cccc(-c4cncnc4)c3)N=C(N)c3c(F)cccc32)cc1C#N (centres unmarked) [Example 43, 5-(3-Amino-4-fluoro-1-(3-(pyrimidin-5-yl)phenyl)-1H-isoindol-1-yl)-2-methoxybenzonitrile]
IC50: 560 nM

COc1c(C)cc(C2(c3cccc(-c4cncnc4)c3)N=C(N)c3c(F)cccc32)nc1C (centres unmarked) [Example 44, 4-Fluoro-1-(5-methoxy-4,6-dimethylpyridin-2-yl)-1-(3-(pyrimidin-5-yl)phenyl)-1H-isoindol-3-amine]
IC50: 79 nM

Cc1cc(C2(c3cccc(-c4cncnc4)c3)N=C(N)c3c(F)cccc32)nc(C)n1 (centres unmarked) [Example 45, 1-(2,6-Dimethylpyrimidin-4-yl)-4-fluoro-1-(3-(pyrimidin-5-yl)phenyl)-1H-isoindol-3-amine]
IC50: 270 nM

COc1cc(C2(c3cccc(-c4cncnc4)c3)N=C(N)c3c(F)cccc32)cc(F)c1F (centres unmarked) [Example 46, 1-(3,4-Difluoro-5-methoxyphenyl)-4-fluoro-1-(3-(pyrimidin-5-yl)phenyl)-1H-isoindol-3-amine]
IC50: 690 nM

COc1c(C)cc(C2(c3cccc(-c4cncnc4)c3)N=C(N)c3c(F)cccc32)cc1CC#N (centres unmarked) [Example 47, 2-(5-(3-Amino-4-fluoro-1-(3-(pyrimidin-5-yl)phenyl)-1H-isoindol-1-yl)-2-methoxy-3-methylphenyl) acetonitrile]
IC50: 83 nM

COc1cc(C2(c3cccc(-c4cncnc4)c3)N=C(N)c3c(F)cccc32)ccc1F (centres unmarked) [Example 48, 4-Fluoro-1-(4-fluoro-3-methoxyphenyl)-1-(3-(pyrimidin-5-yl)phenyl)-1H-isoindol-3-amine]
IC50: 350 nM

COc1ncc(C2(c3cccc(-c4cncnc4)c3)N=C(N)c3c(F)cccc32)cc1C(F)(F)F (centres unmarked) [Example 49, 4-Fluoro-1-(6-methoxy-5-(trifluoromethyl)pyridin-3-yl)-1-(3-(pyrimidin-5-yl)phenyl)-1 H-isoindol-3-amine]
IC50: 600 nM

NC1=NC(c2ccnc(C(F)(F)F)c2)(c2ccc(O)c(-c3cnccn3)c2)c2cccc(F)c21 (centres unmarked) [Example 50, 4-(3-Amino-4-fluoro-1-(2-(trifluoromethyl)pyridin-4-yl)-1H-isoindol-1-yl)-2-(pyrazin-2-yl)phenol]
IC50: 420 nM

COc1ccc(C2(c3ccnc(C(F)(F)F)c3)N=C(N)c3c(F)cccc32)cc1-c1cncnc1 (centres unmarked) [Example 51, 4-Fluoro-1-(4-methoxy-3-(pyrimidin-5-yl)phenyl)-1-(2-(trifluoromethyl)pyridin-4-yl)-1H-isoindol-3-amine]
IC50: 5600 nM

NC1=NC(c2ccnc(-c3cncnc3)c2)(c2ccnc(C3CC3)c2)c2cccc(F)c21 (centres unmarked) [Example 52, 1-(2-Cyclopropylpyridin-4-yl)-4-fluoro-1-(2-(pyrimidin-5-yl)pyridin-4-yl)-1H-isoindol-3-amine]
IC50: 690 nM

Cc1cc(C2(c3ccnc(-c4cncc(F)c4)c3)N=C(N)c3c(F)cccc32)nc(C)c1OC(F)F (centres unmarked) [Example 53, 3-(5-Difluoromethoxy-4,6-dimethyl-pyridin-2-yl)-7-fluoro-3-(5′-fluoro-[2,3′]bipyridinyl-4-yl)-3H-isoindol-1-ylamine]
IC50: 910 nM

COc1c(C)cc(C2(c3cccc(-c4cncnc4)c3)N=C(N)c3c(F)cccc32)cc1C#N (centres unmarked) [Example 54, 5-(3-Amino-4-fluoro-1-(3-(pyrimidin-5-yl)phenyl)-1H-isoindol-1-yl)-2-methoxy-3-methylbenzonitrile]
IC50: 42 nM

NC1=NC(c2cccc(-c3cncnc3)c2)(c2ccnc(C(F)(F)F)c2)c2cc(Cl)cc(F)c21 (centres unmarked) [Example 55, 6-Chloro-4-fluoro-1-(3-(pyrimidin-5-yl)phenyl)-1-(2-(trifluoromethyl)pyridin-4-yl)-1H-isoindol-3-amine]
IC50: 150 nM

Cc1cc(C2(c3cccc(-c4cncnc4)c3)N=C(N)c3c(F)cc(Cl)cc32)ccn1 (centres unmarked) [Example 56, 6-Chloro-4-fluoro-1-(2-methylpyridin-4-yl)-1-(3-(pyrimidin-5-yl)phenyl)-1H-isoindol-3-amine]
IC50: 230 nM

Reference: patent US8030500B2, “Substituted isoindoles for the treatment and/or prevention of Aβ- related pathologies” (AstraZeneca AB, priority 2008, dated 2011)
